Laboratory results published in patent US8039501B2, “Synephrine derivatives useful as anti-inflammatory agents” (Universiteit Gent, priority 2005, dated 2011).
“And” between values parts separate entries of the source, which are not always exact repeats. Equal entries are not always repeated.

Experiments:
[1] = MTT test, cell viability of A549 cells; assay type: cell-based, human; conditions: human, A549 lung epithelial (carcinoma) cells, read-out: Block of A549 cell viability
Experimental: The MTT test is a standard assay addressing cell toxicity of a compound. It is based on the principle that after 3-4 hours of cell incubation with MTT (3-(4,5-dimethylthiazole-2-yl)-2,5-diphenyl tetrazolium bromide) so-called purple formazan crystals develop in living and early apoptotic cells. Dead cells don't produce formazan crystals.
Different cell lines were tested. Unless indicated differently, A549 human lung epithelial cells (derived from lung carcinoma) and L929sA murine fibroblast cells were cultured in DMEM with 10% FCS, 100 U/ml penicillin and 100 μg/ml streptomycin. Unless indicated differently, the human multiple myeloma cell lines L363, U266 and MM1.S were cultured in RPMI 1640 with Glutamax-I, supplemented with 10% FCS, 100 U/ml penicillin and 100 μg/ml streptomycin. Cells were seeded at 5000 cells/well (for adherent A549 and L929sA cells) or at 10000 cells/well (for the multiple myeloma lines in suspension) in 96 well plates. Cells were incubated in the presence of the respective synephrine compounds or vehicle (EtOH; for control test) in a final volume of 0.2 ml for 24 or 48 hours at 37° C. Subsequently, 20 μl of MTT solution (5 mg/ml in phosphate-buffered saline) was added to each well. After 4 hours incubation at 37° C., 80 μl of the extraction buffer (10% SDS, 0.01 M HCl) was added. After overnight incubation at room temperature, the optical densities at 590 nm were measured. Results are illustrated in FIGS. 2 to 6 and are expressed as percentage of viable cells as compared to vehicle-treated controls.
In a further MTT test, the activity of the synephrine derivatives on the inhibition of cell viability of non-immune cells was measured. […] Tests were performed for 24 hours and for 48 hours. The results are illustrated by FIGS. 5A and 5B for L929 cells, and by FIGS. 6A and 6B for A549 cells. It was observed that CpdA at 10^−5 M blocked cell viability of L929sA and A549 for not more than 10%.

[2] = Serum ELISA of osteoclast and osteoblast markers in DBA/1 mice; conditions: 300 μg daily, 8 days
Text: DBA/1 mice—Male 8- to 12-wk-old DBA/1 mice were purchased from Janvier and housed following institutional guidelines. All animal procedures were approved by the institutional animal care and ethics committee. […] The human IL-6 and IL-8 cytoset were purchased from BioSource International, Inc. For the detection of TRAP5b in DBA/1 mice serum we used the Mouse TRAP Assay, purchased from Immunodiagnostic systems limited. The osteocalcin EIA kit was purchased from Biomedical Technologies, Inc. All assays were performed according to the manufacturer's instructions.

B-CLL cells = assay: Annexin V/PI flow cytometric analysis of apoptosis in ex-vivo cultured B-CLL cells; assay type: cell-based, human; conditions: 24 hours
Experimental: Blood samples were obtained from B-CLL patients after informed consent according to institutional guidelines. CLL lymphocytes were isolated using Lymphoprep (Nycomed Pharma, Denmark) and re-suspended at a final concentration of 10−30×10^6 cells/ml in RPMI 1640 medium, supplemented with 10% heat-inactivated fetal bovine serum (FBS) (Greiner Bio-one, Wemmel, Belgium), 100 IU/ml penicillin, 100 μg/ml streptomycin, and 0.56 μg/mL fungizone (Gibco BRL, Merelbeke, Belgium). B-CLL cells were cultured in Dulbecco's Modified Eagle Medium (DMEM) (Gibco, Invitrogen Inc.) containing 10% FBS (Gibco, Invitrogen Inc.). For flow cytometric analysis of apoptosis, B-CLL cells were treated with the different compounds for 24 hours, 3×10^5 cells were removed from the culture medium, washed twice with cold PBS, and double stained with annexin V-fluorescein isothiocyanate (FITC) and propidium iodide (PI; Beckman Coulter, Miami, Fla.) in Annexin binding buffer, followed by analysis on a FC500PTM (Beckman Coulter, Nyon, Switzerland) flow cytometer. Flow cytometric data were analyzed using Cytomixs RXP software (Beckman Coulter, Nyon, Switzerland). To avoid non-specific fluorescence from dead cells, live cells were gated using forward and side scatter.
One of the early signs of apoptosis is the translocation of the membrane phospholipid phosphatidylserine from the cytoplasmic interface to the extracellular surface. Annexin V has a high affinity for the phospatidylserine-containing phospholipid bilayers. […] As the plasma membrane becomes increasingly permeable during the later stages of apoptosis, the DNA-binding dye PI can readily move across the cell membrane and bind to cellular DNA, providing a means to detect the loss of membrane integrity through mechanisms including necrosis. Three different cell populations can be observed in cells double-stained with AnnV-FITC and PI. […] Cells that stain with Ann V only are early apoptotic cells. And cells that stain with both AnnV and PI are late apoptotic/necrotic cells. The percentage of AnnV-positive B-CLL cells in the lymphocyte gate were measured by FACS and results were expressed as % apoptotic cells, i.e. sum of early apoptotic (AnnV+, PI−), and late apoptotic/dead cells (AnnV+, PI+). The percent of living cells was normalized to 100% living cells incubated in control medium with 0.1% EtOH. All measurements were made in duplicate and averaged.

Q: For `CNCC(Cl)c1ccc(OC(C)=O)cc1.Cl` (centres unmarked) [CpdA, 2-(4-acetoxyphenyl)-2-chloro-N-methyl-ethylammonium chloride], which cytotoxicity at 24 h ([1]; 10^−4 M, 24 hours, FIG. 6A) is on record?
A: The cytotoxicity at 24 h was 20%.

Q: And the cytotoxicity at 48 h ([1]; 10^−4 M, 48 hours, FIG. 6B)?
A: The cytotoxicity at 48 h was 40%.

Q: And the cytotoxicity ([1]; 10^−5 M, 24 hours and 48 hours, FIGS. 6A and 6B)?
A: Its cytotoxicity is at most 10%.

Q: What about the “Amount of active osteoclasts (TRAP5b) in serum” value ([2]; FIG. 21A) of the same compound?
A: Its value is “does not alter the amount of active osteoclasts (TRAP5b)”.

Q: What about the “Osteocalcin levels in mouse serum” value ([2]; FIG. 21B) of the same compound?
A: Its value is “does not significantly alter the osteocalcin levels in mouse serum”.

Q: And the “% apoptotic cells, CLL patient 1” value (B-CLL cells; 10^−6M)?
A: The value was 43%.

Q: And the “% apoptotic cells, CLL patient 2” value (B-CLL cells; 10^−6M)?
A: Its value is 54%.

Q: What about the “Apoptosis in cells from 2 different CLL patients” value (B-CLL cells; 10^−7M) of the same compound?
A: Its value is 40% and 55%.
